Test results reported in US9227973B2, “Pyridine CGRP receptor antagonists” (Merck Sharp & Dohme Corp., priority 2012, dated 2016).
pIC50: −log10 of the molar value.

What was measured:
[1] = target: T1, recombinant human CL receptor/RAMP1 (CGRP receptor) (Homo sapiens (Human), UniProt O60894+Q16602); assay: Recombinant receptor functional assay (Assay B), cAMP HTRF; type: cell-based; conditions: Assay B: HEK 293 cells, 2,000 cells/well, human α-CGRP 1.2 nM, cAMP inflection point
Procedure: RECOMBINANT RECEPTOR: Human CL receptor (Genbank accession number L76380) was subcloned into the expression vector pIREShyg2 (BD Biosciences Clontech) as a 5′NheI and 3′ PmeI fragment. Human RAMP1 (Genbank accession number AJ001014) was subcloned into the expression vector pIRESpuro2 (BD Biosciences Clontech) as a 5′NheI and 3′NotI fragment. HEK 293 cells (human embryonic kidney cells; ATCC #CRL-1573) were cultured in DMEM with 4.5 g/L glucose, 1 mM sodium pyruvate and 2 mM glutamine supplemented with 10% fetal bovine serum (FBS), 100 units/mL penicillin and […] streptomycin, and maintained at 37° C. and 95% humidity. Cells were subcultured by treatment with 0.25% trypsin with 0.1% EDTA in HBSS. Stable cell line generation was accomplished by co-transfecting 10 μg of DNA with 30 μg Lipofectamine 2000 (Invitrogen) in 75 cm^2 flasks. CL receptor and RAMP1 expression constructs were co-transfected in equal amounts. Twenty-four hours after transfection the cells were diluted and selective medium (growth medium+300 μg/mL hygromycin and 1 μg/mL puromycin) was added the following day. A clonal cell line was generated by single cell deposition utilizing a FACS Vantage SE (Becton Dickinson). Growth medium was adjusted to 150 μg/mL hygromycin and 0.5 μg/mL puromycin for cell propagation.
RECOMBINANT RECEPTOR FUNCTIONAL ASSAY (Assay B): Cells were resuspended in DMEM/F12 (Hyclone) supplemented with 1 g/L BSA and 300 μM isobutyl-methylxanthine. Cells were then plated in a 384-well plate (Proxiplate Plus 384; 509052761; Perkin-Elmer) at a density of 2,000 cells/well and incubated with antagonist for 30 min at 37° C. Human α-CGRP was then added to the cells at a final concentration of 1.2 nM and incubated an additional 20 min at 37° C. Following agonist stimulation, the cells were processed for cAMP determination using the two-step procedure according to the manufacturer's recommended protocol (HTRF cAMP dynamic 2 assay kit; 62AM4PEC; Cisbio). Raw data were transformed into concentration of cAMP using a standard curve then dose response curves were plotted and inflection point (IP) values were determined

[2] = target: T1, recombinant human CL receptor/RAMP1 (CGRP receptor); assay: Recombinant receptor functional assay (Assay C), cAMP HTRF; type: cell-based; conditions: Assay C: HEK 293 cells, 3,500 cells/well, human α-CGRP 1 nM, cAMP inflection point
Procedure: Human RAMP1 (Genbank accession number AJ001014) was subcloned into the expression vector pIRESpuro2 (BD Biosciences Clontech) as a 5′NheI and 3′NotI fragment. […] Cells were subcultured by treatment with 0.25% trypsin with 0.1% EDTA in HBSS. Stable cell line generation was accomplished by co-transfecting 10 μg of DNA with 30 μg Lipofectamine 2000 (Invitrogen) in 75 cm^2 flasks. CL receptor and RAMP1 expression constructs were co-transfected in equal amounts. Twenty-four hours after transfection the cells were diluted and selective medium (growth medium+300 μg/mL hygromycin and 1 μg/mL puromycin) was added the following day. A clonal cell line was generated by single cell deposition utilizing a FACS Vantage SE (Becton Dickinson). Growth medium was adjusted to 150 μg/mL hygromycin and 0.5 μg/mL puromycin for cell propagation.

T1 sequence (Q16602 23-461): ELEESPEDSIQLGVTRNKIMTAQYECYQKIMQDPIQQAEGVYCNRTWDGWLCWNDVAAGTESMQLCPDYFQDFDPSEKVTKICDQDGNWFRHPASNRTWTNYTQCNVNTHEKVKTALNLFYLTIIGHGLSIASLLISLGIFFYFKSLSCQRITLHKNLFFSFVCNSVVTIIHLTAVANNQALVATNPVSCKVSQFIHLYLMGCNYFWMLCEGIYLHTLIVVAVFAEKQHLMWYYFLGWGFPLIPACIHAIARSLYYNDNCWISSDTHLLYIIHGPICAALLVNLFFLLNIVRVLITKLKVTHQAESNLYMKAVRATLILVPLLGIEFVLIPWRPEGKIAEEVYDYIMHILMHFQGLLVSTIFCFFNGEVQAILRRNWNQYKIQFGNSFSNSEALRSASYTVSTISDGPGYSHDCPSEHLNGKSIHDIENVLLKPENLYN
T1 sequence (O60894 27-148): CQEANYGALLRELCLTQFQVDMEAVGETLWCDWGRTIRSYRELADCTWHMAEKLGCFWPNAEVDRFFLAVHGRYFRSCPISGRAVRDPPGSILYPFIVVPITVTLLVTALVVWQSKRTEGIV

Row | Structure (SMILES) | pIC50 [1] | pIC50 [2]
1 | N[C@@H]1c2cccnc2[C@@H](NC(=O)c2cnc3c(c2)C[C@@]2(C3)C(=O)Nc3ncccc32)CC[C@H]1c1cccc(F)c1F [Example 2, (6S)—N-[(5S,6S,9S)-5-Amino-6-(2,3-difluorophenyl)-6,7,8,9-tetrahydro-5H-cyclohepta[b]pyridin-9-yl]-2′-oxo-1′,2′,5,7-tetrahydrospiro[cyclopenta[b]pyridine-6,3′-pyrrolo[2,3-b]pyridine]-3-carboxamide] | 6.54 | 
2 | O=C(NC1COC(c2ccccc2)Cc2cccnc21)c1cnc2c(c1)C[C@@]1(C2)C(=O)Nc2ncccc21 (single isomer, unassigned; isomer b) [9 isomer B] |  | 5.96
3 | O=C(NC1COC(c2ccccc2)Cc2cccnc21)c1cnc2c(c1)C[C@@]1(C2)C(=O)Nc2ncccc21 (single isomer, unassigned; isomer a) [9 isomer A] |  | 5.72
4 | O=C(NC1CC(c2ccccc2)Cc2cccnc21)c1cnc2c(c1)C[C@@]1(C2)C(=O)Nc2ncccc21 (single isomer, unassigned; isomer a) [6 isomer A] | 7.11 | 
5 | O=C(N[C@H]1CC[C@H](c2cccc(F)c2F)Cc2cccnc21)c1cnc2c(c1)C[C@@]1(C2)C(=O)Nc2ncccc21 [Example 7A, (S)—N-((6S,9S)-6-(2,3-difluorophenyl)-6,7,8,9-tetrahydro-5H-cyclohepta[b]pyridin-9-yl)-2′-oxo-1′,2′,5,7-tetrahydrospiro[cyclopenta[b]pyridine-6,3′-pyrrolo[2,3-b]pyridine]-3-carboxamide] | 6.42 | 
6 | O=C(NC1CC(c2ccccc2)Cc2cccnc21)c1cnc2c(c1)C[C@]1(C2)C(=O)Nc2ncccc21 (single isomer, unassigned; isomer b) [5 isomer B] | 5.34 | 
7 | O=C(NC1CC(c2ccccc2)Cc2cccnc21)c1cnc2c(c1)C[C@]1(C2)C(=O)Nc2ncccc21 (single isomer, unassigned; isomer b) [6 isomer B] | 6.82 | 
8 | N[C@H]1c2cccnc2[C@@H](NC(=O)c2cnc3c(c2)C[C@@]2(C3)C(=O)Nc3ncccc32)CC[C@H]1c1cccc(F)c1F [Example 4, (6S)—N-[(5R,6S,9S)-5-Amino-6-(2,3-difluorophenyl)-6,7,8,9-tetrahydro-5H-cyclohepta[b]pyridin-9-yl]-2′-oxo-1′,2′,5,7-tetrahydrospiro[cyclopenta[b]pyridine-6,3′-pyrrolo[2,3-b]pyridine]-3-carboxamide] | 7.19 | 
9 | O=C(NC1COC(c2ccccc2)Cc2cccnc21)c1cnc2c(c1)C[C@@]1(C2)C(=O)Nc2ncccc21 (single isomer, unassigned; isomer c) [9 isomer C] |  | 5.96

Continued by rising pIC50 [1], values first:

Row | pIC50 [1] | pIC50 [2] | Structure (SMILES)
10 | 7.66 |  | O=C(NC1CC(c2ccccc2)Cc2cccnc21)c1cnc2c(c1)C[C@@]1(C2)C(=O)Nc2ncccc21 (single isomer, unassigned; isomer a) [5 isomer A]
11 | 8.20 |  | N[C@H]1c2cccnc2[C@H](NC(=O)c2cnc3c(c2)C[C@@]2(C3)C(=O)Nc3ncccc32)CC[C@H]1c1cccc(F)c1F [Example 3, (6S)—N-[(5R,6S,9R)-5-Amino-6-(2,3-difluorophenyl)-6,7,8,9-tetrahydro-5H-cyclohepta[b]pyridin-9-yl]-2′-oxo-1′,2′,5,7-tetrahydrospiro[cyclopenta[b]pyridine-6,3′-pyrrolo[2,3-b]pyridine]-3-carboxamide]
12 | 8.35 |  | O=C(N[C@@H]1CC[C@@H](c2cccc(F)c2F)Cc2cccnc21)c1cnc2c(c1)C[C@@]1(C2)C(=O)Nc2ncccc21 [Example 7B, (S)—N-((6R,9R)-6-(2,3-difluorophenyl)-6,7,8,9-tetrahydro-5H-cyclohepta[b]pyridin-9-yl)-2′-oxo-1′,2′,5,7-tetrahydrospiro[cyclopenta[b]pyridine-6,3′-pyrrolo[2,3-b]pyridine]-3-carboxamide]
13 | 9.03 |  | N[C@@H]1c2cccnc2[C@H](NC(=O)c2cnc3c(c2)C[C@@]2(C3)C(=O)Nc3ncccc32)CC[C@H]1c1cccc(F)c1F [Example 1, (6S)—N-[(5S,6S,9R)-5-Amino-6-(2,3-difluorophenyl)-6,7,8,9-tetrahydro-5H-cyclohepta[b]pyridin-9-yl]-2′-oxo-1′,2′,5,7-tetrahydrospiro[cyclopenta[b]pyridine-6,3′-pyrrolo[2,3-b]pyridine]-3-carboxamide]
